Patent publication US20110053896A1, “OSMOLYTES FOR THE TREATMENT OF ALLERGIC OR VIRAL RESPIRATORY DISEASES” (priority 2007, published 2011)

Key:
[1] = tested on: rats sensitized to ovalbumin (OVA), early allergic reaction; assay: Ovalbumin-induced allergic asthma in rats, early allergic reaction (lung function); assay type: in vivo; details: intratracheal pretreatment 48 h, 24 h and 2 h before ovalbumin challenge, in comparison to the negative control
Text: (§1) The study population consisted of 4 treatment groups, a reference group, a sham-sensitized and vehicle-treated negative control group, and a vehicle-treated positive control group. The group size was n=16.
In the first phase of the study, all animals, except for the sham-sensitized group, were systemically sensitized to ovalbumin (OVA) plus adjuvants, the negative control group was given NaCl. On days 7 and 14, the animals were intratracheally boosted with OVA (to enhance the sensitizing effect). 48 h, 24 h and 2 h before the final inhalative allergen exposure was performed, three groups and a positive control group were subjected to an intratracheal pretreatment with the test substance, ectoine, at three dosage levels. […] After expiry of the waiting period, the animals were anesthetized, orotracheally intubated in a gentle manner and—after placement of an oesophagus catheter and allowing the mice to reach a steady state—their lung functions (including such parameters as tidal volume, breathing frequency, dynamic compliance and lung resistance) were measured body-plethysmographically prior to provocation. The data was collected and evaluated using a computer program (HEM, Notocord/France) specifically developed for these lung function tests.
The lung function parameters were continuously recorded during and after exposure in order to measure bronchospasm.

[2] = tested on: Balb/c mice sensitized with ovalbumin (acute allergic asthma); assay: Ovalbumin-sensitized mice, allergic asthma model, intranasal ectoine solution; assay type: in vivo; details: 50 μl intranasal, 14 treatments day 0 to 32, compared to 0.9% salt solution
Experimental: Seven-months-old mice of the inbred strain Balb/c were sensitized by injecting them intraperitoneally with a mixture of ovalbumin and aluminum hydroxide contained in a total volume of 200 μl buffer (PBS). The injection was made twice, once on day 0 and once on day 14. The size of each group tested was n=8.
In order to subsequently induce the allergic reaction in the lungs of the mice, i.e. s to trigger the acute allergic asthma, the mice were treated inhalatively with an ovalbumin aerosol for 30 minutes each on days 28 and 38. For this purpose, the mice were placed in a plexiglass chamber, into which a misty 1% OVA solution was introduced through an inhaler.
For ectoine treatment, the animals were anesthetized with a mixture of ketamine and rompune. 50 μl of a sterile ectoine solution or 0.9% salt solution was applied in front of the nostrils with glass capillaries until the solution was completed inhaled. The treatments—14 in all—started on day 0. The last treatment was administered on day 32.
The end points of the study were defined as the bronchial hyperreactivity as measured with a plethysmograph, the b ronchoalveolar lavage (BAL) cellular composition and the release of OVA-specific igE and igG1 antibodies.

ICAM-1 expression [3] = assay: Inhibition of ICAM-1 expression by ectoine (RT-PCR, UVA radiation); assay type: cell-based; details: ceratinzytes pre-incubated for 24 h with 1 mM ectoine, UVA 30 J/cm^2, RT-PCR relative to β-actin
Experimental: ICAM-1 expression was measured using differential reverse transcriptase-PCR (RT-PCR) and the Applied Biosystem Kit. To take account of the normal variations in the gene expression of skin cells, ICAM-1 expression is put into relationship to the constitutively formed house-keeping gene, β-actin. The semi-quantitive analysis of RT-PCR was performed by ion exchange chromatography using a UV spectrophotometer (A260). (A) Non-pretreated, radiated control sample (B) pre-incubated for 24 h with 1 mM RonaCare™ Ectoin and radiated with a single dose of 30 J/cm^2 or (C) pre-incubated for 24 h with 1 mM ectoine, non-irradiated. UVA radiation induces upregulation of ICAM-1 expression.

[4] = tested on: rats sensitized to ovalbumin (OVA), late allergic reaction; assay: Ovalbumin-induced allergic asthma in rats, late allergic reaction (hyperreactivity, BAL); assay type: in vivo; details: 24 h after the ovalbumin challenge, acetyl-choline hyperreactivity and BAL cell counts, compared to negative control group
Text: as §1
In the first phase of the study, all animals, except for the sham-sensitized group, were systemically sensitized to ovalbumin (OVA) plus adjuvants, the negative control group was given NaCl. On days 7 and 14, the animals were intratracheally boosted with OVA (to enhance the sensitizing effect). […] The two control groups were given only NaCl. After expiry of the waiting period, the animals were anesthetized, orotracheally intubated in a gentle manner and—after placement of an oesophagus catheter and allowing the mice to reach a steady state—their lung functions (including such parameters as tidal volume, breathing frequency, dynamic compliance and lung resistance) were measured body-plethysmographically prior to provocation. The data was collected and evaluated using a computer program (HEM, Notocord/France) specifically developed for these lung function tests.
The late allergic phase was tested 24 h after the ovalbumin challenge. First the animals were tested for airway hyperreactivity to unspecific stimuli. […] Using the lavage liquid, the total and the differential cell counts were determined including the number of esinophiles in the BAL.

ICAM-1 expression [5] = assay: Reduction of ICAM-1 expression by DGP in UVA-irradiated ceratinozytes; assay type: cell-based; details: Human ceratinozytes pretreated with DGP for 24 hours, UVA radiation
Experimental: Human ceratinozytes were pretreated with DGP for 24 hours. After radiation using UVA rays (environment noxes) the quantity of ICAM-1 was measured.

Row | SMILES | effect on lung function parameters (early allergic reaction, bronchospasm) [1] | effect on bronchial hyperreactivity, BAL cellular composition and release of OVA-specific igE and igG1 antibodies [2] | ICAM-1 induction caused by UVA radiation (ICAM-1 expression [3]) | effect on the late allergic reaction [4] | inhibition of ICAM-1 expression (ICAM-1 expression [5]) [%]
1 | CC1=NCC[C@@H](C(=O)O)N1 [ectoine] | significant positive effect | significant positive effect | almost completely neutralize | positive effect | 
2 | O=P(O)(OCC(O)CO)OCC(O)CO (centres unmarked) [DGP, 1,1-diglycerol phosphate] |  |  |  |  | 49
